Data as given in patent US8846949B2, “Pyrrolopyrazoles as N-type calcium channel blockers” (Janssen Pharmaceutica NV, priority 2012, dated 2014).
Read-outs that look alike come from different tables or passages of the source.

Columns and labels:
[1] = molecular target: T1, N-type calcium channel α1B (Cav2.2), β3 and α2δ subunits (Homo sapiens, UniProt Q00975); assay: Functional assay, antagonism of N-type calcium channel (FDSS calcium mobilization response to KCl depolarization); assay type: cell-based; details: for inhibition at 0.33 µM: 0.33 μM compound, FDSS, 50 mM KCl; for IC50: HEK stable cell line, 50 mM KCl depolarization, six-point concentration-response
T1 construct: expressed in transfected cells
T1 sequence (Q00975 whole entry): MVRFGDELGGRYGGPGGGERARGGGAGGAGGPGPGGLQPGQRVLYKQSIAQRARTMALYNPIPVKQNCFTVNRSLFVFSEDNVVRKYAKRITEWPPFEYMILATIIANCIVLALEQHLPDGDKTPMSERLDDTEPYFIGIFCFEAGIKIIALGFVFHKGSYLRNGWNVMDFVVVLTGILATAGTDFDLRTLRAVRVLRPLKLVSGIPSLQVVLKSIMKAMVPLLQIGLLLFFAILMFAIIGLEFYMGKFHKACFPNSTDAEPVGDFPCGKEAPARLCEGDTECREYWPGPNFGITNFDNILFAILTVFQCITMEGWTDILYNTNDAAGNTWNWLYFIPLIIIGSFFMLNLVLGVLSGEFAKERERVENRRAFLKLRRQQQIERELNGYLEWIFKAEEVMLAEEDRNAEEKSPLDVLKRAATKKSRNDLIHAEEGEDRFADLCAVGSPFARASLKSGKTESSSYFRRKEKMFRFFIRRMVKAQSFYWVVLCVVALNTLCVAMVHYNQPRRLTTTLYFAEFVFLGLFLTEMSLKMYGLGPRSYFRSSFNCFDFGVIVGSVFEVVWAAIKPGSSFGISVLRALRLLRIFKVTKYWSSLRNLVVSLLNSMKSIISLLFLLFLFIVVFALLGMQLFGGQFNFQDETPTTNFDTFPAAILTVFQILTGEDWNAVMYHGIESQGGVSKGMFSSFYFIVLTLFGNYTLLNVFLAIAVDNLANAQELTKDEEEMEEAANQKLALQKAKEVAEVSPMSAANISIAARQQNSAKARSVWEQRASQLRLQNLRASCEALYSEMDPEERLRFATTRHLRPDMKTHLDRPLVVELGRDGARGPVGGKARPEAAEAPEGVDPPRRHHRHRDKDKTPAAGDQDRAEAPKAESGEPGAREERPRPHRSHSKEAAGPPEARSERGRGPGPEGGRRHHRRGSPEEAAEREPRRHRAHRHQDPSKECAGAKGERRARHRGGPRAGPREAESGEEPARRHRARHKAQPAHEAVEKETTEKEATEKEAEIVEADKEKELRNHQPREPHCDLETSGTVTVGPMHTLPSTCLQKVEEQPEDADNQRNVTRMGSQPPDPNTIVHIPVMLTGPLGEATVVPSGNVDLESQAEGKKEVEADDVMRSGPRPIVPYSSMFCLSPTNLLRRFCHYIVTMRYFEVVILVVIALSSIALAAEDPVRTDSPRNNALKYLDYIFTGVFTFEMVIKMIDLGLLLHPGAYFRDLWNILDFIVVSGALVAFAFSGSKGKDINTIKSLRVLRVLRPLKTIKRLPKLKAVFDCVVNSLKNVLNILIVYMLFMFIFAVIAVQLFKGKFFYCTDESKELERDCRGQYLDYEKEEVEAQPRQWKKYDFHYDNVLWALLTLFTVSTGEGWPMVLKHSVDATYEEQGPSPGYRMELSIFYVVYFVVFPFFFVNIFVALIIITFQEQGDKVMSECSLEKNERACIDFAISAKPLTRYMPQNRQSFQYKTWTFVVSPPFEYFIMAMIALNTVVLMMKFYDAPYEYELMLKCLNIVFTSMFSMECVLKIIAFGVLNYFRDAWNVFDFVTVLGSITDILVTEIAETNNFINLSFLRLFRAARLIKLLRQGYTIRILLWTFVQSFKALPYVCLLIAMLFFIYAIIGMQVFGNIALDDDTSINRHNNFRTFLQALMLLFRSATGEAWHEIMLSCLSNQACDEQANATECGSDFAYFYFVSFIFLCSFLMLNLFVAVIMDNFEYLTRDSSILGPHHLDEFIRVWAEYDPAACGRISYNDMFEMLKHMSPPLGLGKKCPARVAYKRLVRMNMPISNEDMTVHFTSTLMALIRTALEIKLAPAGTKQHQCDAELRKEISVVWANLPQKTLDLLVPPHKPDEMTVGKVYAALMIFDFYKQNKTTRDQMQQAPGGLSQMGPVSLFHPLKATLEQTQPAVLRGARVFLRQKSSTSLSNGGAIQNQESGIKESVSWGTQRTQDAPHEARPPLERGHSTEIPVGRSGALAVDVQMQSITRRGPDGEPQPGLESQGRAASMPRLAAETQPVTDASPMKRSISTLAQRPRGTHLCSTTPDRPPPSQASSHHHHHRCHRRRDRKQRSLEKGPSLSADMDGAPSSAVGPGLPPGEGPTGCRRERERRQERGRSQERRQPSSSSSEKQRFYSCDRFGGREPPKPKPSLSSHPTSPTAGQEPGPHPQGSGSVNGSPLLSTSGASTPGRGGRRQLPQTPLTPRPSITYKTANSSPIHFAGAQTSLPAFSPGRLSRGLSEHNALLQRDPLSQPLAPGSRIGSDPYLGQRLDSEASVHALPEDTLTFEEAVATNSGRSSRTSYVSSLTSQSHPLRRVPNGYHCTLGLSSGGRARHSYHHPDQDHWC
T1 sequence (P54284 whole entry partner): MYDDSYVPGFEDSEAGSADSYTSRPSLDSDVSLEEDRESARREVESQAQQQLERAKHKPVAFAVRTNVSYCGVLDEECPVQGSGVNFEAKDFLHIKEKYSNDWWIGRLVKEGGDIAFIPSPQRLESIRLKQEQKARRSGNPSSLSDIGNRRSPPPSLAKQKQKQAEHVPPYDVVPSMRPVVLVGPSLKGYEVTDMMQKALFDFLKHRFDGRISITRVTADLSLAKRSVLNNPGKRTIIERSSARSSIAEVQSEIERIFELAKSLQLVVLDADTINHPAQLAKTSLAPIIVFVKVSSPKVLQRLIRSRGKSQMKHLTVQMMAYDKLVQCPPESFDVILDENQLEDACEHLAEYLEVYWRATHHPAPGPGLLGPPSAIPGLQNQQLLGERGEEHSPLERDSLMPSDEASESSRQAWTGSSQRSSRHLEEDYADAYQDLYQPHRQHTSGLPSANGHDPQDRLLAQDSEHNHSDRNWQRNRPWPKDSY
T1 sequence (P54289 25-956 partner limits assumed): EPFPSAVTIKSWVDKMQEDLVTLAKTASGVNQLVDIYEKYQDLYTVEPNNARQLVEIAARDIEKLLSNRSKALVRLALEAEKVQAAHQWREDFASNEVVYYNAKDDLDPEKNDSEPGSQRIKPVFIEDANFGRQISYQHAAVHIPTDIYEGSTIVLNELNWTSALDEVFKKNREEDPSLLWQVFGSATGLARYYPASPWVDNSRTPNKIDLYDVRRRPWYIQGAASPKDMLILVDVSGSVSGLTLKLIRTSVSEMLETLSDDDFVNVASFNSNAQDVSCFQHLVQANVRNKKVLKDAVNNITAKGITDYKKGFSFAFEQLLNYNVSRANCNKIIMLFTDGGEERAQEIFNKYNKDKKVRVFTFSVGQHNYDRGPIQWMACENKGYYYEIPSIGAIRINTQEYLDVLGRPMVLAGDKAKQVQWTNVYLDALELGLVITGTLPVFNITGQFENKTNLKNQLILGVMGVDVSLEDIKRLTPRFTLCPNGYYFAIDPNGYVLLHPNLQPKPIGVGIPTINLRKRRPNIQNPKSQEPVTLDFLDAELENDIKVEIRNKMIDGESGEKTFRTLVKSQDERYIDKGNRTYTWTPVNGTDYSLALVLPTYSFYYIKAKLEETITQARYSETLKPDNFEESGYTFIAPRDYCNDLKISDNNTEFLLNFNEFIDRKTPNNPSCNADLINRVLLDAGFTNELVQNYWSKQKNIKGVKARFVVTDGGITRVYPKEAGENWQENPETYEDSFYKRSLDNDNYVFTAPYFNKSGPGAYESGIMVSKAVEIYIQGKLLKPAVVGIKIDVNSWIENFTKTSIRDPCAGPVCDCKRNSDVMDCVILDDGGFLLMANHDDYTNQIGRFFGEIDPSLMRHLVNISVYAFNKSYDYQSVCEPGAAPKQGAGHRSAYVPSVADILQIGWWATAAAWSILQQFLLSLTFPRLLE
T1 sequence (P54289 957-1103 partner limits assumed): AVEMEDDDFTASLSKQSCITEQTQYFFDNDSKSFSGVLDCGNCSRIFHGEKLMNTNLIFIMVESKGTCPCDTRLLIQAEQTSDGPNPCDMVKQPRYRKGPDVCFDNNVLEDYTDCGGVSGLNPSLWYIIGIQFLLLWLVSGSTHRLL
Procedure, shortened: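 HEK cells stably co-expressing α1B (Cav2.2), β3 and α2δ subunits were loaded with calcium dye, preincubated with compound for 5 min, then depolarized with 50 mM KCl and read for 3 min by FDSS fluorescence. IC50 from six-point curves, normalized to KCl maximum and buffer minimum.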

[2] = molecular target: T2, N-type calcium channel (Homo sapiens, UniProt Q00975); assay: Automated electrophysiology assay (QPatch-HT whole-cell patch clamp); assay type: cell-based
T2 construct: expressed in transfected cells
T2 sequence (Q00975 whole entry): as the sequence (Q00975 whole entry) above
T2 sequence (P54284 whole entry partner): as the sequence (P54284 whole entry partner) above
T2 sequence (P54289 25-956 partner limits assumed): as the sequence (P54289 25-956 partner limits assumed) above
T2 sequence (P54289 957-1103 partner limits assumed): as the sequence (P54289 957-1103 partner limits assumed) above
Procedure, shortened: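 Whole-cell QPatch recordings used 10 mM Ba²⁺/TEA external solution and CsCl internal solution. Trains of 15 pulses at 5 Hz to +20 mV from −80 mV were applied; 1st- and 15th-pulse currents were normalized to control, with CdCl2 zeroing. […]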

[3] = high frequency (15th pulse of train, 5 Hz), read-out: QPatch at High Frequency % Inhibition
[4] = low frequency (1st pulse of train), read-out: QPatch at Low Frequency % Inhibition

SMILES | inhibition at 0.33 µM [1] | IC50 [1] | inhibition at 0.1 µM [2, 3] | inhibition at 0.1 µM [2, 4] | inhibition at 1 µM [2, 3] | inhibition at 1 µM [2, 4]
CC(C)CS(=O)(=O)N1Cc2nn(-c3cccc4c3OCC4)c(-c3ccc(Cl)cc3)c2C1 [Cpd 85, 3-(4-Chlorophenyl)-2-(2,3-dihydro-1-benzofuran-7-yl)-5-[(2-methylpropyl)sulfonyl]-2,4,5,6-tetrahydropyrrolo[3,4-c]pyrazole] | 94% | 14 nM | 37% | 13% |  | 
CC1CCN(S(=O)(=O)N2Cc3nn(-c4cccc5c4OCC5)c(-c4ccc(Cl)cc4)c3C2)CC1 [Cpd 86, 3-(4-Chlorophenyl)-2-(2,3-dihydro-1-benzofuran-7-yl)-5-[(4-methylpiperidin-1-yl)sulfonyl]-2,4,5,6-tetrahydropyrrolo[3,4-c]pyrazole] | 96% | 7 nM | 33% | 20% |  | 
COc1ccccc1-n1nc2c(c1-c1ccc(Cl)cc1)CN(S(=O)(=O)c1c(C)noc1C)C2 [Cpd 87, 3-(4-Chlorophenyl)-5-[(3,5-dimethylisoxazol-4-yl)sulfonyl]-2-(2-methoxyphenyl)-2,4,5,6-tetrahydropyrrolo[3,4-c]pyrazole] | 89% | 17 nM | 49% | 31% |  | 
CC(C)S(=O)(=O)N1Cc2nn(-c3ccccc3N(C)C)c(-c3ccc(Cl)cc3)c2C1 [Cpd 88, 2-[3-(4-Chlorophenyl)-5-[(1-methylethyl)sulfonyl]-5,6-dihydropyrrolo[3,4-c]pyrazol-2(4H)-yl]-N,N-dimethylaniline] | 96% | 5 nM | 47% | 26% |  | 
CCS(=O)(=O)N1Cc2nn(-c3ccccc3N(C)C)c(-c3ccc(Cl)cc3)c2C1 [Cpd 89, 2-[3-(4-Chlorophenyl)-5-(ethylsulfonyl)-5,6-dihydropyrrolo[3,4-c]pyrazol-2(4H)-yl]-N,N-dimethylaniline] | 90% | 28 nM | 34% | 10% |  | 

Further lines, results first:

inhibition at 0.33 µM [1] | IC50 [1] | inhibition at 0.1 µM [2, 3] | inhibition at 0.1 µM [2, 4] | inhibition at 1 µM [2, 3] | inhibition at 1 µM [2, 4] | SMILES
86% | 16 nM | 10% | 14% |  |  | COc1ccccc1-n1nc2c(c1-c1ccc(Cl)nc1)CN(S(=O)(=O)C(C)C)C2 [Cpd 92, 3-(6-Chloropyridin-3-yl)-2-(2-methoxyphenyl)-5-[(1-methylethyl)sulfonyl]-2,4,5,6-tetrahydropyrrolo[3,4-c]pyrazole]
79% | 50 nM | 23% | -4% |  |  | CN(C)S(=O)(=O)N1Cc2nn(-c3ccccc3OCC(F)F)c(-c3ccc(Cl)cc3)c2C1 [Cpd 95, 3-(4-Chlorophenyl)-2-[2-(2,2-difluoroethoxy)phenyl]-N,N-dimethyl-2,6-dihydropyrrolo[3,4-c]pyrazole-5(4H)-sulfonamide]
67% | 43 nM |  |  | 60% | 40% | COc1ccc(-c2c3c(nn2-c2ccccc2OC)CN(S(=O)(=O)C(C)C)C3)cn1 [Cpd 97, 2-(2-Methoxyphenyl)-3-(6-methoxypyridin-3-yl)-5-[(1-methylethyl)sulfonyl]-2,4,5,6-tetrahydropyrrolo[3,4-c]pyrazole]
